Results on 19 molecules are retold here after ChEMBL document CHEMBL1156319, “Synthesis, crystal and antibacterial studies of diversely functionalized tetrahydropyridin-4-ol” (2010).

In brackets after ≈: the same amount, converted by molar mass.

What all share (format): functional
One assay relates to Klebsiella pneumoniae. In words: Antibacterial activity against Klebsiella pneumoniae LCB0014 by two fold serial dilution method.
The next assay relates to Staphylococcus aureus. The experiment in a line: Antibacterial activity against Staphylococcus aureus LCB0001 by two fold serial dilution method.
Assay [1] concerns Escherichia coli. In words: Antibacterial activity against Escherichia coli LCB0010 by two fold serial dilution method.
In another assay the test system is Enterococcus faecalis. In words: Antibacterial activity against Enterococcus faecalis LCB0005 by two fold serial dilution method.
Assay [2] concerns Escherichia coli. In words: Antibacterial activity against Escherichia coli LCB0012 by two fold serial dilution method.
For the next assay, the system named is Enterococcus faecium. The experiment in a line: Antibacterial activity against Enterococcus faecium LCB0009 by two fold serial dilution method.
The subject of a further assay is Pseudomonas aeruginosa. The experiment in a line: Antibacterial activity against Pseudomonas aeruginosa LCB0013 by two fold serial dilution method.
A further assay has as its system Moraxella catarrhalis. The experiment in a line: Antibacterial activity against Moraxella catarrhalis LCB0016 by two fold serial dilution method.
Assay [3] concerns Staphylococcus epidermidis. The experiment in a line: Antibacterial activity against Staphylococcus epidermidis LCB0003 by two fold serial dilution method.
A further assay deals with Haemophilus influenzae. The experiment in a line: Antibacterial activity against Haemophilus influenzae LCB0015 by two fold serial dilution method.
For assay [4], the system named is Escherichia coli. The experiment in a line: Antibacterial activity against Escherichia coli LCB0011 by two fold serial dilution method.

For `CCOC(=O)C1=C(O)CC(c2ccccc2)N(C(=O)C(C)Sc2nc3ccccc3o2)C1c1ccccc1` (stereo not drawn), the MIC90 against Klebsiella pneumoniae, with Staphylococcus aureus, against Escherichia coli [1], in the assay with Enterococcus faecalis, against Escherichia coli [2] and in the assay with Enterococcus faecium was over 128 µg/mL throughout. The MIC90 (in the assay on Pseudomonas aeruginosa; in the assay with Moraxella catarrhalis; in [3]; in the assay on Haemophilus influenzae; with Escherichia coli [4]) was over 128 µg/mL throughout.
Take `CCOC(=O)C1=C(O)CC(c2ccccc2)N(C(=O)CSc2nc3ccccc3o2)C1c1ccccc1` (stereo not drawn): the MIC90 in the assay with Klebsiella pneumoniae, with Staphylococcus aureus, in the assay on Escherichia coli [1], in the assay with Enterococcus faecalis, against Escherichia coli [2] and in the assay with Enterococcus faecium was over 128 µg/mL each time. Besides, the MIC90 (in the assay on Pseudomonas aeruginosa; against Moraxella catarrhalis; in assay [3]; in the assay with Haemophilus influenzae; in the assay on Escherichia coli [4]) was over 128 µg/mL throughout.
Turning to `CCOC(=O)C1=C(O)CC(c2ccccc2)N(C(=O)C(C)N2CCOCC2)C1c1ccccc1` (stereo not drawn), the MIC90 against Klebsiella pneumoniae was over 128 µg/mL; in the assay on Staphylococcus aureus, over 128 µg/mL; with Escherichia coli [1] it was over 128 µg/mL; against Enterococcus faecalis it was over 128 µg/mL; against Escherichia coli [2], over 128 µg/mL; in the assay on Enterococcus faecium it was 128 µg/mL (≈ 276 µM). Moreover, the MIC90 (against Pseudomonas aeruginosa; in the assay with Moraxella catarrhalis; in assay [3]; in the assay on Haemophilus influenzae; with Escherichia coli [4]) was over 128 µg/mL throughout.
Turning to `CCOC(=O)C1=C(O)CC(c2ccccc2)N(C(=O)Cn2ccc3ccccc32)C1c1ccccc1` (stereo not drawn), the MIC90 against Klebsiella pneumoniae, in the assay on Staphylococcus aureus, against Escherichia coli [1], in the assay on Enterococcus faecalis, in the assay on Escherichia coli [2] and in the assay with Enterococcus faecium was over 128 µg/mL each time. Further, the MIC90 is over 128 µg/mL with Pseudomonas aeruginosa; 32 µg/mL (≈ 66.6 µM) in the assay with Moraxella catarrhalis; over 128 µg/mL in assay [3]; over 128 µg/mL against Haemophilus influenzae; over 128 µg/mL against Escherichia coli [4].
`CCOC(=O)C1=C(O)CC(c2ccccc2)N(C(=O)C(C)N2CCSCC2)C1c1ccccc1` (stereo not drawn): the MIC90 against Klebsiella pneumoniae, with Staphylococcus aureus, against Escherichia coli [1], against Enterococcus faecalis, with Escherichia coli [2] and against Enterococcus faecium was over 128 µg/mL throughout. Moreover, the MIC90 (in the assay with Pseudomonas aeruginosa; in the assay on Moraxella catarrhalis; in assay [3]; with Haemophilus influenzae; against Escherichia coli [4]) was over 128 µg/mL throughout.
For `CCOC(=O)C1=C(O)CC(c2ccccc2)N(C(=O)C(C)n2ccc3ccccc32)C1c1ccccc1` (stereo not drawn), the MIC90 was over 128 µg/mL with Klebsiella pneumoniae; over 128 µg/mL with Staphylococcus aureus; over 128 µg/mL with Escherichia coli [1]; over 128 µg/mL in the assay with Enterococcus faecalis; 128 µg/mL (≈ 259 µM) against Escherichia coli [2]; over 128 µg/mL with Enterococcus faecium. Also, the MIC90 (in the assay with Pseudomonas aeruginosa; in the assay on Moraxella catarrhalis; in assay [3]; against Haemophilus influenzae; with Escherichia coli [4]) was over 128 µg/mL each time.
As to `CCOC(=O)C1=C(O)CC(c2ccccc2)N(C(=O)c2ccccc2)C1c1ccccc1` (stereo not drawn), the MIC90 in the assay with Klebsiella pneumoniae is over 128 µg/mL; against Staphylococcus aureus it was over 128 µg/mL; with Escherichia coli [1] it was over 128 µg/mL; against Enterococcus faecalis, over 128 µg/mL; in the assay with Escherichia coli [2] it was 64 µg/mL (≈ 150 µM); in the assay with Enterococcus faecium, over 128 µg/mL. For the same molecule, the MIC90 (against Pseudomonas aeruginosa; with Moraxella catarrhalis; in assay [3]; against Haemophilus influenzae; against Escherichia coli [4]) was over 128 µg/mL in each case.
As to `CCOC(=O)C1=C(O)CC(c2ccccc2)N(C(=O)Cn2nnc(-c3ccccc3)n2)C1c1ccccc1` (stereo not drawn), the MIC90 against Klebsiella pneumoniae is over 128 µg/mL; against Staphylococcus aureus it was over 128 µg/mL; against Escherichia coli [1] it was over 128 µg/mL; against Enterococcus faecalis, over 128 µg/mL; with Escherichia coli [2], over 128 µg/mL; with Enterococcus faecium, 128 µg/mL (≈ 251 µM). Moreover, the MIC90 (against Pseudomonas aeruginosa; in the assay on Moraxella catarrhalis; in assay [3]; against Haemophilus influenzae; against Escherichia coli [4]) was over 128 µg/mL in each case.
On to `CCOC(=O)C1=C(O)CC(c2ccccc2)N(C(=O)Cn2ccnc2)C1c1ccccc1` (stereo not drawn), for which the MIC90 in the assay with Klebsiella pneumoniae was over 128 µg/mL; in the assay with Staphylococcus aureus it was 128 µg/mL (≈ 297 µM); against Escherichia coli [1] it was over 128 µg/mL; in the assay on Enterococcus faecalis, over 128 µg/mL; in the assay on Escherichia coli [2], 64 µg/mL (≈ 148 µM); in the assay on Enterococcus faecium, over 128 µg/mL. The MIC90 was over 128 µg/mL with Pseudomonas aeruginosa; 64 µg/mL (≈ 148 µM) against Moraxella catarrhalis; over 128 µg/mL in [3]; over 128 µg/mL with Haemophilus influenzae; over 128 µg/mL against Escherichia coli [4].
For `CCOC(=O)C1=C(O)CC(c2ccccc2)N(C(=O)CN2CCN(C)CC2)C1c1ccccc1` (stereo not drawn), the MIC90 with Klebsiella pneumoniae is over 128 µg/mL; with Staphylococcus aureus, over 128 µg/mL; in the assay on Escherichia coli [1] it was over 128 µg/mL; with Enterococcus faecalis it was over 128 µg/mL; against Escherichia coli [2], over 128 µg/mL; against Enterococcus faecium, 128 µg/mL (≈ 276 µM). Besides, the MIC90 in the assay with Pseudomonas aeruginosa was over 128 µg/mL; in the assay with Moraxella catarrhalis it was 32 µg/mL (≈ 69 µM); in assay [3] it was over 128 µg/mL; against Haemophilus influenzae, over 128 µg/mL; against Escherichia coli [4], over 128 µg/mL.
Take `CCOC(=O)C1=C(O)CC(c2ccccc2)N(C(=O)C(C)n2cnc3ccccc32)C1c1ccccc1` (stereo not drawn): the MIC90 against Klebsiella pneumoniae, in the assay on Escherichia coli [1], in the assay with Enterococcus faecalis, in the assay on Escherichia coli [2], with Enterococcus faecium and against Pseudomonas aeruginosa was over 128 µg/mL throughout. For the same molecule, the MIC90 (in the assay with Moraxella catarrhalis; in [3]; with Haemophilus influenzae; in the assay with Escherichia coli [4]) was over 128 µg/mL in each case.
Take `CCOC(=O)C1=C(O)CC(c2ccccc2)N(C(=O)C(C)N2CCN(C)CC2)C1c1ccccc1` (stereo not drawn): the MIC90 in the assay with Klebsiella pneumoniae, against Staphylococcus aureus, in the assay on Escherichia coli [1], against Enterococcus faecalis, in the assay with Escherichia coli [2] and with Enterococcus faecium was over 128 µg/mL throughout. Also, the MIC90 is over 128 µg/mL in the assay with Pseudomonas aeruginosa; 64 µg/mL (≈ 134 µM) in the assay with Moraxella catarrhalis; over 128 µg/mL in assay [3]; over 128 µg/mL against Haemophilus influenzae; over 128 µg/mL in the assay with Escherichia coli [4].
With `CCOC(=O)C1=C(O)CC(c2ccccc2)N(C(=O)CN2CCCCC2)C1c1ccccc1` (stereo not drawn), the MIC90 with Klebsiella pneumoniae is over 128 µg/mL; against Staphylococcus aureus it was over 128 µg/mL; against Escherichia coli [1], over 128 µg/mL; with Enterococcus faecalis it was over 128 µg/mL; with Escherichia coli [2], 64 µg/mL (≈ 143 µM); with Enterococcus faecium, 128 µg/mL (≈ 285 µM). Moreover, the MIC90 is over 128 µg/mL against Pseudomonas aeruginosa; 32 µg/mL (≈ 71.3 µM) against Moraxella catarrhalis; over 128 µg/mL in assay [3]; over 128 µg/mL in the assay with Haemophilus influenzae; over 128 µg/mL against Escherichia coli [4].
Take `CCOC(=O)C1=C(O)CC(c2ccccc2)N(C(=O)C(C)n2nnc3ccccc32)C1c1ccccc1` (stereo not drawn): the MIC90 against Klebsiella pneumoniae, in the assay with Staphylococcus aureus, against Escherichia coli [1], against Enterococcus faecalis, against Escherichia coli [2] and in the assay with Enterococcus faecium was over 128 µg/mL in each case. Also, the MIC90 (with Pseudomonas aeruginosa; in the assay on Moraxella catarrhalis; in assay [3]; against Haemophilus influenzae; in the assay on Escherichia coli [4]) was over 128 µg/mL throughout.
In the case of `CCOC(=O)C1=C(O)CC(c2ccccc2)N(C(=O)CN2CCSCC2)C1c1ccccc1` (stereo not drawn), the MIC90 against Klebsiella pneumoniae, against Staphylococcus aureus, in the assay with Escherichia coli [1], against Enterococcus faecalis, with Escherichia coli [2] and against Enterococcus faecium was over 128 µg/mL each time. Also, the MIC90 against Pseudomonas aeruginosa was over 128 µg/mL; with Moraxella catarrhalis it was 64 µg/mL (≈ 137 µM); in assay [3], over 128 µg/mL; in the assay with Haemophilus influenzae it was over 128 µg/mL; in the assay with Escherichia coli [4] it was over 128 µg/mL.
Take `CCOC(=O)C1=C(O)CC(c2ccccc2)N(C(=O)Cn2nnc3ccccc32)C1c1ccccc1` (stereo not drawn): the MIC90 in the assay with Klebsiella pneumoniae was over 128 µg/mL; in the assay on Staphylococcus aureus it was over 128 µg/mL; against Escherichia coli [1], over 128 µg/mL; in the assay with Enterococcus faecalis it was over 128 µg/mL; against Escherichia coli [2], over 128 µg/mL; against Enterococcus faecium it was 64 µg/mL (≈ 133 µM). Also, the MIC90 (against Pseudomonas aeruginosa; with Moraxella catarrhalis; in assay [3]; with Haemophilus influenzae; in the assay with Escherichia coli [4]) was over 128 µg/mL throughout.
`CCOC(=O)C1=C(O)CC(c2ccccc2)N(C(=O)C(C)n2nnc(-c3ccccc3)n2)C1c1ccccc1` (stereo not drawn): the MIC90 against Klebsiella pneumoniae, in the assay with Staphylococcus aureus, in the assay with Escherichia coli [1], in the assay on Enterococcus faecalis, in the assay on Escherichia coli [2] and with Enterococcus faecium was over 128 µg/mL throughout. Also, the MIC90 (in the assay with Pseudomonas aeruginosa; in the assay with Moraxella catarrhalis; in [3]; against Haemophilus influenzae; in the assay with Escherichia coli [4]) was over 128 µg/mL throughout.
Consider `CCOC(=O)C1=C(O)CC(c2ccccc2)N(C(=O)C(C)N2CCCCC2)C1c1ccccc1` (stereo not drawn), for which the MIC90 against Klebsiella pneumoniae is over 128 µg/mL; in the assay on Staphylococcus aureus, over 128 µg/mL; against Escherichia coli [1], over 128 µg/mL; in the assay with Enterococcus faecalis it was over 128 µg/mL; in the assay with Escherichia coli [2], over 128 µg/mL; with Enterococcus faecium, 128 µg/mL (≈ 277 µM). Also, the MIC90 in the assay with Pseudomonas aeruginosa was over 128 µg/mL; with Moraxella catarrhalis, 64 µg/mL (≈ 138 µM); in assay [3] it was over 128 µg/mL; in the assay with Haemophilus influenzae, over 128 µg/mL; against Escherichia coli [4], over 128 µg/mL.
Take `CCOC(=O)C1=C(O)CC(c2ccccc2)N(C(=O)C(C)Sc2ccc3ccccc3c2)C1c1ccccc1` (stereo not drawn): the MIC90 with Klebsiella pneumoniae, in the assay with Staphylococcus aureus, in the assay with Escherichia coli [1], against Enterococcus faecalis, in the assay with Escherichia coli [2] and in the assay on Enterococcus faecium was over 128 µg/mL in each case. Moreover, the MIC90 (in the assay with Pseudomonas aeruginosa; with Moraxella catarrhalis; in assay [3]; in the assay on Haemophilus influenzae; against Escherichia coli [4]) was over 128 µg/mL each time.
